Data set [1] deals with T1, ETA receptor in MMQ cells (rET-A) (Rattus norvegicus, UniProt P26684).
T1 construct: endogenous in cells; host or cells: MMQ rat pituitary cells (membranes)
T1 sequence (P26684 21-426): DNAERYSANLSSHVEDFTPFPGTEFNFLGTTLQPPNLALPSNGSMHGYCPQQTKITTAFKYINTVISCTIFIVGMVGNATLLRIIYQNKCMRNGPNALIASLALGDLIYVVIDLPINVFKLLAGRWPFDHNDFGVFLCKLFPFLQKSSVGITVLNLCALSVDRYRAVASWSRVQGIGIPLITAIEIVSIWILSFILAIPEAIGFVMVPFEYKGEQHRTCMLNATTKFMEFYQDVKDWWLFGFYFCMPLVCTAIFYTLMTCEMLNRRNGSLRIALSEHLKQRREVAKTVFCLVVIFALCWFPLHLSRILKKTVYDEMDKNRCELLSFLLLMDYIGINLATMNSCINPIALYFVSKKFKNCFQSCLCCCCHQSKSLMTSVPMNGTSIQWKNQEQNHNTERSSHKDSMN
Put plainly: ETA/ETB selectivity: (125I)ET-1 competition binding, ETA assay in MMQ cell membranes (rET-A). The conditions noted are these: MMQ cell membranes; for pIC50: 0.1 nM (125I)ET-1, read-out: rET-A IC50. The protocol:
(§1) The mixture was centrifuged at 1000×g for 10 min. The supernatant was collected and centrifuged at 60,000×g for 60 min. The precipitate was resuspended in 20 mM Tris, pH 7.4 containing protease inhibitor and centrifuged again. The final membrane pellet was resuspended in 20 mM Tris, pH 7.4 containing protease inhibitors and stored at −80° C. until used. Protein content was determined by the Bio-Rad dye-binding protein assay.
(§2) Binding assays were performed in 96-well microtiter plates pretreated with 0.1% BSA. […] After incubation, unbound ligands were separated from bound ligands by a vacuum filtration method using glass-fiber filter strips in PHD cell harvesters (Cambridge Technology, Inc., MA), washing the filter strips three times with saline (1 mL). Nonspecific binding was determined in the presence of 1 μM ET-1. IC50 values are calculated using an average of at least two separate determinations.

For data set [2], the system named is ET-1-induced phosphatidylinositol hydrolysis in MMQ cells. Put plainly: Determination of ET-1-induced phosphatidylinositol (PI) hydrolysis in MMQ cells. The class given is cell-based, rat. The following applies: 1 nM ET-1 challenge, read-out: IC50 (inhibition of ET-induced increase in PI turnover). How it is done:
MMQ cells (0.4×10^6 cells/mL) were labeled with 10 μCi/mL of [^3H]myo-inositol in RPMI for 16 hours. The cells were washed with PBS, then incubated with Buffer A containing protease inhibitors and 10 mM LiCl for 60 minutes. The cells were then incubated with test compounds for 5 minutes, and then challenged with 1 nM ET-1. ET-1 challenge was terminated by the addition of 1.5 mL of 1:2 (v/v) chloroform-methanol. Total inositol phosphates were extracted after adding chloroform and water to give final proportions of 1:1:0.9 (v/v/v) chloroform-methanol-water as described by Berridge (Biochem. J. 206 587–595 (1982)). The upper aqueous phase (1 mL) was retained and a small portion (100 μL) was counted. The rest of the aqueous sample was analyzed by batch chromatography using anion-exchange resin AG1-X8 (Bio-Rad). […] The results of the above study clearly indicate that the compounds act as functional ET antagonists.

Data set [3] deals with T2, ETB receptors of porcine cerebellar tissues (pET-B) (Sus scrofa, UniProt P35463).
T2 construct: porcine cerebellar tissues (known to contain ETB receptors); from tissue; host or cells: porcine cerebellum (membranes)
T2 sequence (P35463 27-443): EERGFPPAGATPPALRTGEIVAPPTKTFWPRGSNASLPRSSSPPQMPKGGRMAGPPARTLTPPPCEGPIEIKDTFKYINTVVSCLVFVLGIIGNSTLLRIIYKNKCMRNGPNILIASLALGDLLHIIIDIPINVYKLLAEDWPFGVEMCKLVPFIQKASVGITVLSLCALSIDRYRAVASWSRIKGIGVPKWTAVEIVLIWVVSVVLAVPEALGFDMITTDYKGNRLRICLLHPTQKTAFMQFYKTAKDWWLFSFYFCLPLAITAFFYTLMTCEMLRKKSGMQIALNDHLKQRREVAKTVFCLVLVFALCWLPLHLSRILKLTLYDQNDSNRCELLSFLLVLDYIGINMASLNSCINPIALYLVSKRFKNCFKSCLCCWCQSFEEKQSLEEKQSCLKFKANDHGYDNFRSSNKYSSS
Briefly: ETA/ETB selectivity: (125I)ET-3 competition binding, ETB assay in porcine cerebellum membranes (pET-B). The following applies: porcine cerebellum membranes; 0.1 nM (125I)ET-3; read-out: pET-B IC50. The protocol: as §1, §2

Data set [4] addresses T3, human ETA receptor (Homo sapiens, UniProt P25101).
T3 construct: expressed in transfected cells; host or cells: CHO cells, permanently transfected
T3 sequence (P25101 21-427): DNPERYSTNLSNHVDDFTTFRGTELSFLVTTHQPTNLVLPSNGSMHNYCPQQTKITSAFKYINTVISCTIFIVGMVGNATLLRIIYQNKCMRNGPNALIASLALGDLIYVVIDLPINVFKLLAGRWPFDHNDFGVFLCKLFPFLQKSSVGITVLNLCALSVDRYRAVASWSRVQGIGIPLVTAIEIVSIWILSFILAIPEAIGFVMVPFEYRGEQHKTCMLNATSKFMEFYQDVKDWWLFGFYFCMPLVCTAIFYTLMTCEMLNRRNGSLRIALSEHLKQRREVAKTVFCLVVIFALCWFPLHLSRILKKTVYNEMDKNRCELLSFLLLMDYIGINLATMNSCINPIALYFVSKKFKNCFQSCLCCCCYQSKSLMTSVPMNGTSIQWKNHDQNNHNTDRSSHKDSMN
Put plainly: ETA/ETB selectivity: (125I)ET-1 competition binding, CHO cells transfected with human ETA receptor (hET-A). How it is done: as §1, §2

The target of data set [5] is T4, human ETB receptor (Homo sapiens, UniProt P24530).
T4 construct: expressed in transfected cells; host or cells: CHO cells, permanently transfected
T4 sequence (P24530 27-442): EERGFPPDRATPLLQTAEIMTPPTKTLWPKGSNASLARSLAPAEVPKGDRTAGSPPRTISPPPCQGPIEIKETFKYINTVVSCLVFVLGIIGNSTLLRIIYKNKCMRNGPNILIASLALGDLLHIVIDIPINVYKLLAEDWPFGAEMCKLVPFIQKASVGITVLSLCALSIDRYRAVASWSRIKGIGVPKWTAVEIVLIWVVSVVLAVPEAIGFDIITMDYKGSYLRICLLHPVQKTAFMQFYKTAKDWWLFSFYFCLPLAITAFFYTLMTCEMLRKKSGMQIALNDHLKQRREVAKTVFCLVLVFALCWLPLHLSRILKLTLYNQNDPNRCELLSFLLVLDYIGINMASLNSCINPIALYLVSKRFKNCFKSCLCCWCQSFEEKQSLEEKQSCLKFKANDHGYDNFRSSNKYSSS
Put plainly: ETA/ETB selectivity: (125I)ET-3 competition binding, CHO cells transfected with human ETB receptor (hET-B). The protocol:
MMQ cells, porcine cerebellar tissues (known to contain ETB receptors) and chinese hamster ovary cells (CHO) permanently transfected with the human ETA or ETB receptor were homogenized in 25 ml of 10 mM Hepes (pH 7.4) containing 0.25 M sucrose and a protease inhibitor [50 mM EDTA, 0.1 mM PMSF, 5 μg/ml Pepstatin A, and 0.025% Bacitracin] using a micro ultrasonic cell disrupter. The mixture was centrifuged at 1000×g for 10 min. The supernatant was collected and centrifuged at 60,000×g for 60 min. The precipitate was resuspended in 20 mM Tris, pH 7.4 containing protease inhibitor and centrifuged again. The final membrane pellet was resuspended in 20 mM Tris, pH 7.4 containing protease inhibitors and stored at −80° C. until used. Protein content was determined by the Bio-Rad dye-binding protein assay.
Binding assays were performed in 96-well microtiter plates pretreated with 0.1% BSA. Membranes prepared from cells were diluted 100 fold in Buffer B (20 mM Tris, 100 mM NaCl, 10 mM MgCl2, pH 7.4, with 0.2% BSA, 0.1 mM PMSF, 5 μg/mL Pepstatin A, 0.025% bacitracin, and 50 mM EDTA) to a final concentration of 0.2 mg/mL of protein. In competition binding studies, membranes (0.02 mg) were incubated with 0.1 nM of (^125I)ET-1 (for ETA assay in MMQ or CHO cells transfected with human ETA receptor) or (^125I)ET-3 (for ETB assay in porcine cerebellum or CHO cells transfected with human ETB receptor) in Buffer B (final volume: 0.2 mL) in the presence of increasing concentrations of the test compound for 3 hours at 25° C. After incubation, unbound ligands were separated from bound ligands by a vacuum filtration method using glass-fiber filter strips in PHD cell harvesters (Cambridge Technology, Inc., MA), washing the filter strips three times with saline (1 mL). Nonspecific binding was determined in the presence of 1 μM ET-1. IC50 values are calculated using an average of at least two separate determinations.

Data set [6] addresses T5, ETA Receptor (Rattus norvegicus, UniProt P26684).
T5 construct: endogenous in cells; host or cells: MMQ rat pituitary cells (membranes)
T5 sequence (P26684 21-426): T1 sequence (P26684 21-426)
Briefly: [125I]ET-1 binding to membranes from MMQ cells (ETA receptor binding assay, Table 4). The following applies: test compound at 1 μM, 0.1 nM [125I]ET-1, MMQ cell membranes, 4 hours at 25° C.

The target in data set [7] is T3, human ETA receptor. Briefly: Albumin-induced binding shift study: [125I]ET-1 binding in presence of human serum albumin. The following applies: 0%, 0.2%, 1% or 5% HSA. The protocol:
Protocol for Albumin-induced binding shift studies: Binding assays were performed in 96-well microtiter plates precoated with 0.1% BSA unless otherwise indicated. Membranes were diluted in Buffer B (20 mM Tris, 100 mM NaCl, 10 mM MgCl2, pH 7.4, 0.1 mM PMSF, […] Pepstatin A, 0.025% bacitracin and 3 mM EDTA) to a final concentration of 0.05 mg/ml of protein. Varying concentrations of human serum albumin (HSA) were added as indicated. In competition studies, membranes were incubated with 0.1 nM of [^125I]ET in Buffer B (final volume: 0.2 ml) in the presence of increasing concentrations of unlabeled test ligands for 4 hours at 25° C. After incubation, unbound ligands were separated from bound ligands by vacuum filtration using glass-fiber filter strips in PHD cell harvesters (Cambridge Technology, Inc., Watertown, MA), followed by washing the filter strips with saline (1 ml) for three times. Nonspecific binding was determined in the presence of 1 μM ET-1. Inhibition of [^125]ET-1 binding to human ETA receptor by ETA antagonists. Each curve was determined in the presence of either 0%, 0.2%, 1%, or 5% HSA, and assays were performed as described above. The results are expressed as % of control binding, with [^125I]ET-1 binding in the absence of antagonist defining 100%. Each point represents the mean (±S.D.) of three determinations.

Data set [8] can be described thus: Determination of plasma protein binding (ultrafiltration, HPLC). Also on record: fraction unbound at 1 h: dose or concentration left out as unconfirmed. The data set is classed as in vitro ADME. The following applies: fresh plasma, 1 hour at room temperature. How it is done: A stock solution of the test compound in 50% ethanol (2 mg/mL) was diluted 10× into PBS. A 0.4 mL sample of this secondary stock solution was added to 3.6 mL of fresh plasma, and incubated at room temperature for 1 hour. A 1 mL sample of this incubation mixture was transferred to a Centrifree ultrafiltration tube. The sample was centrifuged in a fixed-bucket rotor for approximately 2 min and the filtrate was discarded. The sample was centrifuged for another 15–30 min. A 100 μL sample of the ultrafiltrate was transfered to a micro HPLC sample vial containing […] of HPLC mobile phase and mixed thoroughly. A 50 μL sample was injected and the concentration of drug in the ultrafiltrate was determined by HPLC analysis compared against a standard sample prepared identically in the absence of plasma. Ultrafiltrate concentrations are calculated from a calibration curve. Protein binding is calculated according to the equation: % PB=[1−(Cu/Ci)]*100%
where Cu is the ultrafiltrate concentration and Ci is the initial plasma concentration.

The nature of data set [9]: pH-solubility profile: maximum solubility in aqueous media at varying pH. The data set is classed as physicochemical. From the text: Such increased aqueous solubility, coupled with the enhanced potency resulting from decreased protein binding, might make such compounds preferred for development as parenteral agents.

For orientation: inhibition means the share of the control response that was lost under treatment. As a reminder, the pIC50 is −log10 of the IC50, conventionally taken in molar units.

SMILES strings stand for the structures. pIC50: −log10 of the molar value. Where two headings read alike, the source gives them in different places. Bounds are passed on as bounds.

Take `CC=CC(C)(C)CC1C(C(=O)O)C(c2cc(OC)c3c(c2)OCO3)CN1CC(=O)N(CCCC)CCCC` (stereo not shown) [Example 553]: in data set [1] (1 μM test compound), the inhibition at 1 µM is 100%. Besides, the negative-log IC50 (pIC50) in data set [1] was 9.59; in [2] (Rattus norvegicus), 9.40; in data set [3] it was 4.37; in data set [4] it was 9.54; in data set [5], 4.40.

Turning to `CCCCN(CCCC)C(=O)CN1C[C@H](c2ccc3c(c2)OCO3)[C@@H](C(=O)O)[C@@H]1c1ccc(OC)cc1` (relative stereo) [Example 43, trans,trans-2-(4-Methoxyphenyl)-4-(1,3-benzodioxol-5-yl)-1-(N,N-di(n-butyl)aminocarbonylmethyl)-pyrrolidine-3-carboxylic acid], the “% Inhibition of ETA at 1 μM” value in data set [6] came out at 99.2%. The “shift of the binding curve in the presence of increasing albumin levels” value in [7] is reported as “rightward shift of the binding curve (toward decreasing potency)”. Further, the “percent of bound compound (plasma protein binding, % PB)” value in data set [8] is given as greater than 98%; in data set [8] (listed as Example #43) it was greater than 99.5%. Further, the pIC50 in data set [2] was 10.00. Moreover, the maximum solubility turned out to be 80 µg/mL in data set [9] (pH 5.1, about 25° C.); 510 µg/mL in data set [9] (pH 6.5, about 25° C.); 990 µg/mL in data set [9] (pH 7.1, about 25° C.); 1140 µg/mL in data set [9] (pH 7.6, about 25° C.).

On to `CCCCN(C(=O)CN1CC(c2ccc3c(c2)OCO3)C(C(=O)O)C1c1ccc(OC)cc1)c1cccc(CN)c1` (stereo not shown) [compound 532], for which the inhibition at 1 µM in data set [6] (read-out: % Inhibition of ETA at 1 μM) turned out to be 100%. Besides, the results for the pIC50 in data set [1] and in data set [3] were 8.29 and 5.49, respectively. In addition, the fraction unbound at 1 h in data set [8] (read-out: percent of bound compound (plasma protein binding, % PB) (converted)) was 0.032.

(Values after patent US7208517B1, “Endothelin antagonists” (Abbott Labortories, priority 1994, dated 2007).)
